What was measured:
human α7 nAChR = biological target: T1, human α7 nAChR (Homo sapiens, UniProt P36544); assay: Evaluation of PAM activity with human α7 nACh receptor stably expressing cells (aequorin luminescence, FDSS7000); assay type: cell-based; settings: ACh at EC20; for α7PAM (%) @ 10 μmol/L: test compound 10 μmol/L, ratio of RLU (Max-Min) of test-compound wells to control wells, human α7 nAChR expressing GH4C1 cells; for PAM activity for α7 nAChR (in words): ratio of RLU (Max-Min) of test wells to control wells
T1 construct: expressed in transfected cells; host or cells: GH4C1 cells (rat pituitary, ATCC CCL-82.2)
Text: Evaluation of PAM Activity with Human α7 nACh Receptor Stably Expressing Cells
(1) Human α7 nAChR stably expressing cells
Human α7 nAChR stably expressing cells were generated and cultured. In detail, GH4C1 cells derived from rat pituitary (cat#CCL-82.2, ATCC, USA) were used as a host cell. PcDNA3.1Zeo vector containing a nucleotide sequence encoding a protein GenBank BAC81731 and pcDNA3.1 vector containing human α7 nAChR gene (cat#V790-20, invitrogen, Carlsbad, Calif., USA) were transfected to the cells to give aequorins and human α7 nAChR stably expressing cells respectively. The aequorins and human α7 nAChR stably expressing cells were screened with Zeocin (cat#R25001, invitrogen, Carlsbad, Calif., USA) and Geneticin (cat#10131-027, invitrogen, Carlsbad, Calif., USA) respectively.
The cells were cultured in F-10 Nutrient Mixture (Ham) medium (cat#11550-043, invitrogen, Carlsbad, Calif., USA) containing 2.5% fetal bovine serum (cat#2917354, ICN Biomedicals, Inc, USA), 15% inactivated horse serum (cat#26050-088, invitrogen, Carlsbad, Calif., USA), 1 μg/mL Geneticin, and 5 μg/mL Puromycin (cat#14861-84, invitrogen, Carlsbad, Calif., USA), in a Collagen Type 1-coated dish (cat#4030-010, iwaki, Tokyo, Japan). During the culture, the medium was replaced with fresh medium in every 2 to 3 days, and the cells were treated with TrypLE Express (cat#45604-021, invitrogen, Carlsbad, Calif., USA) to collect them in every 7 days. Thus, the cells were subcultured.
7 Days after subculturing, the cells were treated with TrypLE Express to collect them when they were about 80% confluent. The cells were suspended in a reaction medium containing Hanks (cat#14065-056, invitrogen, Carlsbad, Calif., USA)/20 mmol/L Hepes (cat#15630-080, invitrogen, Carlsbad, Calif., USA), Buffer (pH 7.4), F-10 Nutrient Mixture (Ham), and 0.1 mg/mL Geneticin, and the suspension was seeded in a 384-well plate (cat#781090, Greiner, Germany) at 20000 cells/25 μL per well.
On the next day after seeding, Viviren (cat#E649X, Promega, Madison, Wis., USA) was added to the medium so that the final concentration could be 4 μmol/L (15 μL/well). The plates were centrifuged and then placed in the dark for 4 hours at room temperature.
(2) Preparation of the Test Samples
Each of the test compounds was dissolved in DMSO to prepare each test sample at a concentration of 1000-fold the final concentration. To the solution was added Hanks/20 mM HEPES/0.2% BSA (cat#A3803, Sigma, St. Louis, Mo., USA), and the concentration was adjusted to 6-fold the final concentration.
(3) Evaluation of PAM Activity
FDSS7000 (Hamamatsu Photonics) was used to detect the luminescence signal evoked by α7 nAChR stimulation. The cells and a luminescent substrate were put on a plate, and the test sample was added thereto. […] After the addition of ACh, the luminescence signal (the central wavelength: 465 nm) was measured for 138 seconds to calculate RLU (Max-Min). The ratio of the RLU (Max-Min) of the test-compound-containing wells to that of the control wells was defined as PAM activity.

Slc: ddY mice = assay: Novel object recognition test with mice (mORT); assay type: in vivo; settings: 0.3 mg/kg, 1.0 mg/kg or 3 mg/kg
Protocol: Evaluation of Cognitive Function with Mice in Novel Object Recognition Test (Hereinafter, Referred to as “mORT”)
Slc: ddY mice (25 g to 30 g, male, Japan SLC) can be used in the novel object recognition test wherein the interval between the 1st trial (training) and the 2nd trial (test) correlates with the memory loss for the objects used in the 1st trial, and a significant memory-loss is observed when the 2nd trial is performed 24 hours after the 1st trial. According to the test mechanism, the present compounds were administered prior to the 1st trial, and the enhancement effect on memory in the 2nd trial was evaluated.

T1 sequence (P36544 23-502): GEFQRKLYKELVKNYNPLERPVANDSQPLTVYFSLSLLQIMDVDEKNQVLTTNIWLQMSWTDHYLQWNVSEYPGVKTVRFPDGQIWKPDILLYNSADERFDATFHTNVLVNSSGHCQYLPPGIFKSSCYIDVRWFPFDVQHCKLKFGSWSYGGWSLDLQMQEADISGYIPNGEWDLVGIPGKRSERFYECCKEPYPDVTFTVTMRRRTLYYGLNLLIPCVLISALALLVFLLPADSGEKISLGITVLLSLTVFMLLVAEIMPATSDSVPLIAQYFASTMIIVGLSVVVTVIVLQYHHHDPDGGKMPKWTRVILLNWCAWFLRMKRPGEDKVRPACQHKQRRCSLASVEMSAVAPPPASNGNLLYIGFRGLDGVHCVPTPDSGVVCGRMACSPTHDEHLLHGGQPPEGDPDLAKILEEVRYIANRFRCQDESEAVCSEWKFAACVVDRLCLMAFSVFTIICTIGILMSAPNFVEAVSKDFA

SMILES | α7PAM (%) @ 10 μmol/L (human α7 nAChR) | efficacy at higher doses (Slc: ddY mice) | PAM activity for α7 nAChR (in words) (human α7 nAChR)
CO[C@H]1CC[C@H](NC(=O)N2CCC(n3ncc4cc(C5CC5)ccc43)CC2)CC1 [Example 74, 4-(5-cyclopropyl-1H-indazol-1-yl)-N-(trans-4-methoxycyclohexyl)piperidine-1-carboxamide] | 1226% | the efficacy did not decrease | –
O=C(NC1CCC(F)(F)CC1)N1CCC(n2ncc3c(OC(F)F)cccc32)CC1 [Example 201] | 370% | – | –
CO[C@H]1CC[C@H](NC(=O)N2CCC(n3ncc4cc(-c5ccc(F)cc5)ccc43)CC2)CC1 [Example 155] | 210% | – | –
CCOc1ccc2c(cnn2C2CCN(C(=O)NC3CCC(F)(F)CC3)CC2)c1 [Example 27, N-(4,4-difluorocyclohexyl)-4-(5-ethoxy-1H-indazol-1-yl)piperidine-1-carboxamide] | 1673% | – | –
O=C(C1CCOCC1)N1CCC(n2ncc3cc(F)ccc32)CC1 [Example 104] | 190% | – | –
CO[C@H]1CC[C@H](NC(=O)N2CCC(n3ncc4cc(OC(F)F)ccc43)CC2)CC1 [Example 291, 4-[5-(difluoromethoxy)-1H-indazol-1-yl]-N-(trans-4-methoxycyclohexyl)piperidine-1-carboxamide] | 1433% | – | –
CO[C@H]1CC[C@H](NC(=O)N2CCC(n3ncc4cc(C)ccc43)CC2)CC1 [Example 1, N-(trans-4-methoxycyclohexyl)-4-(5-methyl-1H-indazol-1-yl)piperidine-1-carboxamide] | 1209% | the efficacy did not decrease | –
CCc1ccc2c(cnn2C2CCN(C(=O)NC3CCC(F)(F)CC3)CC2)c1 [Example 23] | – | – | stronger PAM activity than others
CCc1ccc2c(cnn2[C@H]2CC[C@@H](NC(=O)C3CCCCC3)CC2)c1 [Example 119] | – | – | stronger PAM activity than others
CO[C@H]1CC[C@H](NC(=O)N2CCC(n3ncc4c(C)c(C)ccc43)CC2)CC1 [Example 225] | 480% | – | –
CCc1ccc2c(cnn2[C@H]2CC[C@@H](NC(=O)C3CCC(F)(F)CC3)CC2)c1 [Example 4, N-(cis-4-(5-ethyl-1H-indazol-1-yl)cyclohexyl)-4,4-difluorocyclohexanecarboxamide] | 2344% | – | stronger PAM activity than others
